Target: T1, recombinant HIV-1 protease expressed in E. Coli (Human immunodeficiency virus type 1 group M subtype B, UniProt P04585)
T1 construct: Enzyme: recombinant HIV-1 protease expressed in E. Coli; purchased Bachem California, Inc. (Torrance, Calif.) H-9040; host or cells: E. coli
Assay: HIV-1 Protease Enzyme Assay (Ki), fluorimetric detection of hexapeptide substrate cleavage
Format: biochemical
Conditions: recombinant HIV-1 protease 1 to 2.5 nM, substrate 40 μM, pH 5.3, 37° C., tight-binding competitive inhibition
Excerpt: Biological Assays Used for the Characterization of HIV Protease Inhibitors HIV-1 Protease Enzyme Assay (Ki)
The assay is based on the fluorimetric detection of synthetic hexapeptide substrate cleavage by HIV-1 protease in a defined reaction buffer as initially described by M. V. Toth and G. R. Marshall, Int. J. Peptide Protein Res. 36, 544 (1990)
Substrate: (2-aminobenzoyl)Thr-Ile-Nle-(p-nitro)Phe-Gln-Arg
Substrate supplied by Bachem California, Inc. (Torrance, Calif.; Cat. no. H-2992)
Enzyme: recombinant HIV-1 protease expressed in E. Coli
Enzyme supplied by Bachem California, Inc. (Torrance, Calif.; Cat. no. H-9040)
Reaction buffer: 100 mM ammonium acetate, pH 5.3
• 1 M sodium chloride • 1 mM ethylendiaminetetraacetic acid • 1 mM dithiothreitol • 10% dimethylsulfoxide Assay Protocol for the Determination of Inhibition Constant Ki: • 1. Prepare series of solutions containing identical amount of the enzyme (1 to 2.5 nM) and a tested inhibitor at different concentrations in the reaction buffer • 2. Transfer the solutions (190 μL each) into a white 96-well plate • 3. Preincubate for 15 min at 37° C. • 4. Solubilize the substrate in 100% dimethylsulfoxide at a concentration of 800 μM. Start the reaction by adding 10 μL of 800 μM substrate into each well (final substrate concentration of 40 μM) • 5. […]

## CCOP(=O)(COc1ccc(C[C@H](NC(=O)O[C@H]2CO[C@H]3OCC[C@H]32)[C@@H](O)CN(Cc2ccc(-c3ccccn3)cc2)NC(=O)[C@@H](NC(=O)OC)C(C)(C)C)cc1)OCC [Example AY]
  Ki: < 30 pM
